Test results from US9446007B2, “Methods for maintaining or improving health, well-being and/or a physiological function in a subject” (DYNAMIS THERAPEUTICS, INC., priority 2012, dated 2016).

Assays:
[1] = test system: 3-Deoxyglucosone (3DG); experiment: Mice study: urine 3-deoxyglucosone (3DG) levels, GC-MS; type: in vivo, C57BL/6 male mice; details: 10, 40 or 75 mM in drinking water; age 103 weeks; vs control animals
Protocol: (§1) A group of sixteen C57BL/6 male mice at 12 weeks of age were distributed into 4 groups (n=4 each). Animals were fed a normal diet supplemented with 0 mM, 10 mM, 40 mM, or 75 mM meglumine in the drinking water. The approximate doses of meglumine were 537 mg/kg/day, 2,146 mg/kg/day, and 4,027 mg/kg/day for animals treated with, respectfully, 10 mM, 40 mM and 75 mM meglumine.
Urine was collected from animals (n=3 for all groups, except n=4 for 75 mM meglumine) at the age of 103 weeks and 3DG levels were measured using GC-MS with an internal U-[^13C]-3DG standard (FIG. 2). Prior to analysis, urine samples were treated with 2,3-diaminonapthalene overnight to derivatize 3DG, and then extracted with ethyl acetate. Urinary creatinine levels were measured with a reagent kit from Oxford Biochemicals. The 3DG/creatinine ratio (±standard deviation) is illustrated in FIG. 2.

[2] = test system: C57BL/6 male mice; experiment: Mice study: longevity; type: in vivo; details: for average lifespan (±standard deviation): control 771±214.6
Protocol: as §1
Animals were observed daily, and date of death was noted if applicable. Four animals were found dead in their cages, and twelve were euthanized after showing symptoms of distress (hunched posture, weight loss, decreased food intake).
The average lifespan (±standard deviation) for the mice treated with 0 mM, 10 mM, 40 mM and 75 mM meglumine was 771±214.6 days, 834±124 days, 927±80.3 days and 1,027±117.5 days. Animals treated with 10 mM, 40 mM and 75 mM lived, respectively, 8.2%, 20.2%, and 33.2% longer than the control animals.

[3] = test system: advanced glycation end products (AGE products); experiment: Rat study: advanced glycation end product in skin (fluorescence ratio); type: in vivo, Sprague-Dawley rat; details: 32 weeks; for Mean AGE/Total Protein in skin: water 0.594 ± 0.173; for decrease of AGE product in the skin vs untreated rats: not statistically significant
Protocol: At the end of 32 weeks the ratio of advanced glycation end products (AGE products) to total protein was determined in the skin using the ratio of fluorescence measurements. A 3 cm^2 biopsy was taken from the shaved dorsal surface of the rats. The dermis was separated from the epidermis via immersion in water at 55° C. for 30 seconds, followed by gentle scraping of epidermis. The dermis was placed onto a wire screen cut to fit diagonally into fluorescence spectrometer. Fluorescence was recorded on PE 650-40 fluorescence spectrometer using front surface (“diagonal”) geometry. Fluorescence intensities were monitored at excitation/emission wavelengths of 270/300 nm, 270/330 nm, 270/360 nm, 270/400 nm, 325/400 nm, 270/450 nm and 370/450 nm. For direct comparison at the same excitation wavelength, ratios of I(270/330 nm) to I(270/450 nm) were recorded. These ratios were corrected for different instrumental responses at 330 and 450 nm.

[4] = test system: 3DG; experiment: Rat study: urinary 3DG levels, GC-MS; type: in vivo, Sprague-Dawley rat; details: 50 mM, 32 weeks
Protocol: The level of 3DG was measured in the urine of the rats at 32 weeks. 3DG levels were measured by GC-MS by reacting 0.1 ml of sample, to which 20 picomoles of [U-^13C] labeled 3DG had been added as an internal standard, with 1 ml of 1 mM 2,3-diaminonaphthalene (DAN) for 24 hours at room temperature. Following reaction with DAN, the sample was extracted with four volumes of ethyl acetate and then dried. The residue was dissolved in 50 μl of N-methyl-N-(trimethylsilyl)trifluoroacetamide and heated at 65° C. for 30 min. 2 μl was analyzed by GC-MS. Levels of 3DG were normalized to creatinine levels measured with reagents from Oxford Biochemicals.

[5] = test system: isoprostane; experiment: Rat study: urinary isoprostane levels, competitive ELISA; type: in vivo, Sprague-Dawley rat; details: 50 mM, 32 weeks
Protocol: […] Rat urine from 32 weeks was measured for the presence of isoprostane, a marker for oxidative stress using a competitive ELISA (Oxford Biochemicals, Oxford Mich.). All values were normalized to creatinine levels to control for differences in urine volume. Creatinine was measured using a kit from Oxford Biochemicals.

[6] = test system: imidazolone; experiment: Rat study: 3DG adduct (imidazolone) levels in skin, fluorescent immunohistochemistry; type: in vivo, Sprague-Dawley rat; details: 50 mM, 32 weeks
Protocol: Eighteen male Sprague-Dawley rat (ACE) weighing 150-175 g were divided into 3 groups (n=6) and fed a normal diet supplemented with 0 mM, 25 mM, or 75 mM meglumine in the drinking water for 32 weeks. The presence of imidazolone, a 3DG-derived adduct formed from the reaction of 3DG and arginine was measured by fluorescent immunohistochemistry, using a monoclonal antibody to imidazolone, AG-1 (T. Niwa). A piece of skin from each rat on water and 50 mM meglumine was fixed in formalin, and thin sections were treated with AG-1 antibody and then a fluorescent second antibody, and each slide was scanned using a fluorescence microscope. The total florescence due to imidazolone over each slide was measured.

[7] = test system: imidazolone; experiment: Rat study: 3DG adduct (imidazolone) levels in kidney tubules and glomeruli; type: in vivo, Sprague-Dawley rat; details: 50 mM, 32 weeks
Protocol: Eighteen male Sprague-Dawley rat (ACE) weighing 150-175 g were divided into 3 groups (n=6) and fed a normal diet supplemented with 0 mM, 25 mM, or 75 mM meglumine in the drinking water for 32 weeks. The 3DG adduct imidazolone was measured in kidney tubules and glomeruli by fluorescent immunohistochemistry using a monoclonal antibody to imidazolone, AG-1 (T. Niwa). Kidneys from each rat on water or 50 mM meglumine were placed in formalin, and thin sections were prepared. Each slide was treated with AG-1 and then a fluorescent second antibody, and then scanned using a fluorescence microscope. The total florescence due to imidazolone over each structure measured.

[8] = test system: blood glucose; experiment: Glucose tolerance test; type: in vivo, KK.Cg-A^y/+/J yellow mice; details: mutant yellow mice; 18 mM meglumine hydrochloride in water for 16 weeks; 15, 30, 60 and 120 min; vs water
Protocol: Mutant KK.Cg-A^y/+/J “yellow mice” (which are prone to developing diabetes and obesity) and control KK.Cg-A^+/+/J “black mice” were fed with water or water supplemented with 18 mM meglumine hydrochloride for 16 weeks. As a comparison group, SV129 normoglycemic mice were fed with water. The animals were then fasted overnight and blood glucose measured (time 0 min). The animals were injected with glucose, and blood glucose levels measured after 15 min, 30 min, 60 min and 120 min. The results are illustrated in FIG. 8.

[9] = test system: SV129 mice; experiment: Strength testing in mice (inverted metal grid); type: in vivo; details: 18 mM meglumine hydrochloride in drinking water, 6 weeks; n=15; control 6.3±3.4; p=0.0006
From the text: The grip strength test is a widely-used non-invasive method designed to evaluate mouse limb strength that has been used to investigate the effects of neuromuscular disorders and compound under testing. It is based on the natural tendency of the mouse to grasp a bar or grid when it is suspended by the tail. During this test the mouse grips with both forelimbs (or hind-limbs) a single bar or a mesh. There are three kinds of grip strength tests used: Mesh Grip Test, Wire Grip Test, and Automatic Grip Strength (GS Meter). The Mesh Grip Test measures the ability of the mouse to remain clinging to an inverted or tilted surface such as a wire grid or a cage lid for a period of time, usually up to 1 minute; the Wire Grip Test measures the ability of the mouse to hang on a wire with its forepaws for a preset length of time or until grip fails, while in the Automatic Grip Strength the mouse grasps a horizontal metal bar or grid while is pulled by the tail. The bar or grid is attached to a force transducer that peak pull-force achieved on its digital display. A group of SV129 mice (n=15) and a group of mice treated with 18 mM meglumine hydrochloride in their drinking water (n=15) for 6 weeks were tested for the ability to hold on to an inverted metal grid. The length of time before falling off the grid was averaged, and the standard error was calculated.

CNC[C@H](O)[C@@H](O)[C@H](O)[C@H](O)CO [meglumine, (2R,3R,4R,5S)-6-methylaminohexane-1,2,3,4,5-pentol]
urine 3DG/creatinine ratio [1]: less than the control animals | lived longer than the control animals ([2]; 10 mM in drinking water): 8.2% | average lifespan (±standard deviation) ([2]; 10 mM in drinking water (537 mg/kg/day)): 834 ± 124 days | lived longer than the control animals ([2]; 40 mM in drinking water): 20.2% | average lifespan (±standard deviation) ([2]; 40 mM in drinking water (2,146 mg/kg/day)): 927 ± 80.3 days | lived longer than the control animals ([2]; 75 mM in drinking water): 33.2% | average lifespan (±standard deviation) ([2]; 75 mM in drinking water (4,027 mg/kg/day)): 1,027±117.5 days | Mean AGE/Total Protein in skin ([3]; 25 mM in drinking water): 0.486 ± 0.187 | decrease of AGE product in the skin vs untreated rats ([3]; 25 mM): 10% | Mean AGE/Total Protein in skin ([3]; 50 mM in drinking water): 0.235 ± 0.067 | decrease of AGE product in the skin vs untreated rats ([3]; 50 mM): 60% | urinary 3DG levels lower than in rats on water [4]: 33% | urinary 3DG ([4]; water 0.0891 ± 0.007): 0.0598 ± 0.004 µM | urinary isoprostane levels lower than in rats on water ([5]; not statistically significant): 22% | urinary Isoprostane ([5]; water 2.65 ± 0.236): 2.05 ± 0.283 ng/mL | less imidazolone in skin than rats on water ([6]; not statistically significant): 25% | Fluorescence (imidazolone) in skin ([6]; water 790567 ± 83833): 593320 ± 87404 | less imidazolone in glomeruli than rats on water ([7]; not statistically significant): 24% | less imidazolone in tubules than rats on water ([7]; not statistically significant): 13% | Fluorescence in Tubules (imidazolone) ([7]; water 47,081,228 ± 6,407,142): 40,158,431 ± 3,644,819 | Fluorescence in Glomeruli (imidazolone) ([7]; water 85,039,251 ± 13,401,970): 64,376,501 ± 7,548,981 | blood glucose levels after glucose injection [8]: decreased blood glucose levels | length of time that the animals could hold on to the grid [9]: 17.8 ± 0.6 s
